Measured values taken from ChEMBL document CHEMBL1127273, “Novel cholecystokinin receptor ligands: Oxopiperazines derived from Boc-CCK-4” (Bioorg Med Chem Lett, 1994).
Residues, ends and D or L forms follow the SMILES beside them. *: point of attachment. NHPhenethyl = c1ccc(CCN*)cc1; Boc = CC(C)(C)OC(=O)*

Legend:
[1] = target: Cholecystokinin receptor (Mus musculus) (UniProt O08786+P56481); experiment: Ratio of CCK-A receptor to CCK-B receptor was determined; format: protein assay
[2] = target: T1, Gastrin/cholecystokinin type B receptor (Mus musculus, UniProt P56481); experiment: Concentration producing half-maximal inhibition of specific binding of [125I]- CCK-8 to CCK receptors mouse forebrain membranes (CCK-B); format: tissue-based, Brain
T1 sequence (P56481 whole entry): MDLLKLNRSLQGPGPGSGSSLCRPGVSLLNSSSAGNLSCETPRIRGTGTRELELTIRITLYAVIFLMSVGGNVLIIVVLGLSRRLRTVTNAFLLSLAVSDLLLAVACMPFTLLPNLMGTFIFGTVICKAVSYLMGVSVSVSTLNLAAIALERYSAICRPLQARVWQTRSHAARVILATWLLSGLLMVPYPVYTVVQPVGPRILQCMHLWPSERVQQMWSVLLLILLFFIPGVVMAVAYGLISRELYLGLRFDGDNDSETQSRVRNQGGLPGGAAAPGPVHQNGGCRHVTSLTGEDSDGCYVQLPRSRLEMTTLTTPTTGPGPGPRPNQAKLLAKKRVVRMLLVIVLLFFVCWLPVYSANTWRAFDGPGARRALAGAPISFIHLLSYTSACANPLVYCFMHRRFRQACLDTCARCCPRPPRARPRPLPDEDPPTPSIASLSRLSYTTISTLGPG

[3] = target: T2, Cholecystokinin receptor type A (Mus musculus, UniProt O08786); experiment: Concentration producing half-maximal inhibition of specific binding of [125I]- CCK-8 to CCK receptors on mouse pancreatic membranes (CCK-A)
T2 sequence (O08786 whole entry): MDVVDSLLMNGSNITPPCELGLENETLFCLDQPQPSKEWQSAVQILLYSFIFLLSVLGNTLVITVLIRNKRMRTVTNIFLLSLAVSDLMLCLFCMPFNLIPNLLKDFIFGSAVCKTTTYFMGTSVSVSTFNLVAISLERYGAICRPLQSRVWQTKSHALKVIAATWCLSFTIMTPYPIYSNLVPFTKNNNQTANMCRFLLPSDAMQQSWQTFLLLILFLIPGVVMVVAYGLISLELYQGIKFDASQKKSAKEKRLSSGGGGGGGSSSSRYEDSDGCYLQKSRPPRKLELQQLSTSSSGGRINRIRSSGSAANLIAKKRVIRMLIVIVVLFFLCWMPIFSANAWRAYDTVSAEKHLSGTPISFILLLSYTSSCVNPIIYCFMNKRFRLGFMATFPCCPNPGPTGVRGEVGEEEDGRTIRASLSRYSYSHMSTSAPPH

| Compound | Ratio [1] | IC50 [2] | IC50 [3] |
| --- | --- | --- | --- |
| CC(C)C[C@H](NC(=O)C(NC(=O)OC(C)(C)C)c1ccccc1)C(=O)N1CC(=O)N[C@@H](Cc2ccccc2)C1 (stereo not given in full) | 2.4 | 10 µM | 24000 nM |
| CC(C)C[C@H](NC(=O)[C@H](Cc1c[nH]c2ccccc12)NC(=O)OCc1ccccc1)C(=O)N1CC(=O)N[C@@H](Cc2ccccc2)C1 | 0.0036 | 18 µM | 64 nM |
| CC(C)C[C@H](NC(=O)Cc1c[nH]c2ccccc12)C(=O)N1C[C@H](Cc2ccccc2)NC(=O)[C@@H]1CC(=O)O | 5.2 | 2.5 µM | 13000 nM |
| CC(C)C[C@H](NC(=O)[C@H](Cc1c[nH]c2ccccc12)NC(=O)OC(C)(C)C)C(=O)N[C@@H](CC(=O)O)C(=O)NCCc1ccccc1 (Boc-Trp-Leu-Asp-NHPhenethyl) | 10 | – | – |
| CC(C)C[C@H](NC(=O)[C@H](Cc1c[nH]c2ccccc12)NC(=O)OC(C)(C)C)C(=O)N1C[C@@H](Cc2ccccc2)NC(=O)[C@H]1CC(=O)O | 0.09 | 70 µM | 6300 nM |
| CC(C)C[C@H](NC(=O)[C@H](Cc1c[nH]c2ccccc12)NC(=O)OCc1ccccc1)C(=O)N1CC(=O)N[C@H](Cc2ccccc2)C1 | 0.0009 | 15 µM | 14 nM |
| CC(C)C[C@H](NC(=O)[C@H](Cc1c[nH]c2ccccc12)NC(=O)OC(C)(C)C)C(=O)N1C[C@H](CCc2ccccc2)NC(=O)[C@@H]1CC(=O)O | 0.077 | 8.2 µM | 630 nM |
| CCCC[C@H](NC(=O)c1c[nH]c2ccccc12)C(=O)N1C[C@H](Cc2ccccc2)NC(=O)[C@@H]1CC(=O)O | – | > 100 µM | 1400 nM |
| CC(C)C[C@H](NC(=O)[C@H](Cc1c[nH]c2ccccc12)NC(=O)/C=C/c1ccccc1)C(=O)N1CC(=O)N[C@@H](Cc2ccccc2)C1 | – | > 100 µM | 520 nM |
| CC(C)C[C@H](NC(=O)[C@@H](Cc1c[nH]c2ccccc12)NC(=O)OC(C)(C)C)C(=O)N1CC(=O)N[C@@H](Cc2ccccc2)C1 | – | > 100 µM | 5500 nM |
| CC(C)C[C@H](NC(=O)[C@H](Cc1c[nH]c2ccccc12)NC(=O)OC(C)(C)C)C(=O)N1C[C@H](Cc2ccccc2)NC(=O)[C@@H]1CC(=O)O | 0.014 | 61 µM | 840 nM |
| CCCC[C@H](NC(=O)Cc1c[nH]c2ccccc12)C(=O)N1C[C@H](Cc2ccccc2)NC(=O)[C@@H]1CC(=O)O | 6 | 1.2 µM | 7200 nM |
| CC(C)C[C@H](NC(=O)[C@H](Cc1c[nH]c2ccccc12)NC(=O)OC(C)(C)C)C(=O)N1C[C@H](c2ccccc2)NC(=O)[C@@H]1CC(=O)O | 1 | 9.4 µM | 9400 nM |
| CC(C)C[C@H](NC(=O)[C@H](Cc1c[nH]c2ccccc12)NC(=O)OC(C)(C)C)C(=O)N1C[C@@H](Cc2ccccc2)NC(=O)[C@@H]1CC(=O)O | 0.21 | 17 µM | 3600 nM |
| CC(C)C[C@H](NC(=O)[C@H](Cc1c[nH]c2ccccc12)NC(=O)OC(C)(C)C)C(=O)N1CC(=O)N[C@H](Cc2ccccc2)C1 | 0.0012 | 39 µM | 46 nM |
| CC(C)C[C@H](NC(=O)[C@@H](N)Cc1c[nH]c2ccccc12)C(=O)N1C[C@H](Cc2ccccc2)NC(=O)[C@@H]1CC(=O)O | 3.4 | 15 µM | 51000 nM |
| CC(C)C[C@H](NC(=O)[C@H](Cc1c[nH]c2ccccc12)NC(=O)OC(C)(C)C)C(=O)N1C[C@H](Cc2ccccc2)NC(=O)[C@H]1CC(=O)O (mixture of isomers) | 0.38 | 7.4 µM | 2800 nM |
| CC(C)C[C@H](NC(=O)CCc1c[nH]c2ccccc12)C(=O)N1C[C@H](Cc2ccccc2)NC(=O)[C@@H]1CC(=O)O | 6.3 | 8.9 µM | 56000 nM |
| CCOC(=O)N[C@@H](Cc1c[nH]c2ccccc12)C(=O)N[C@@H](CC(C)C)C(=O)N1CC(=O)N[C@@H](Cc2ccccc2)C1 | 0.011 | 38 µM | 430 nM |
| CC(C)C[C@H](NC(=O)[C@H](Cc1c[nH]c2ccccc12)NC(=O)OC(C)(C)C)C(=O)N1CC(=O)N[C@@H](Cc2ccccc2)C1 | 0.0073 | 37 µM | 270 nM |
